Data as given in US20230041996A1, “CALCIUM-SENSING RECEPTOR AGONIST COMPOUND AND APPLICATION THEREOF” (BEIJING TUO JIE BIOPHARMACEUTICAL CO. LTD., priority 2019, published 2023).
Where two headings read alike, the source gives them in different places. Square brackets hold non-standard residues; d marks the D form. Peptide text beside a SMILES is read from it. * marks the point of attachment. dPhe(4-NO2) = N[C@H](Cc1ccc([N+](=O)[O-])cc1)C(=O)O; dPhe(4-Me) = Cc1ccc(C[C@@H](N)C(=O)O)cc1; Cys(free,S-linked) = N[C@@H](CS*)C(=O)O; dPhe(2-Cl) = N[C@H](Cc1ccccc1Cl)C(=O)O; d2Nal = N[C@H](Cc1ccc2ccccc2c1)C(=O)O; dCha = N[C@H](CC1CCCCC1)C(=O)O; dChg = N[C@@H](C(=O)O)C1CCCCC1; dPhg = N[C@@H](C(=O)O)c1ccccc1; dTle = CC(C)(C)[C@@H](N)C(=O)O

Tests used:
[1] = molecular target: T1, human calcium-sensing receptor (CaSR) (Homo sapiens, UniProt P41180); assay: Agonist activity on human calcium-sensing receptor (IP-One HTRF in stably transfected HEK293/CaSR cells); format: cell-based
T1 construct: host or cells: HEK293
T1 sequence (P41180 20-1078): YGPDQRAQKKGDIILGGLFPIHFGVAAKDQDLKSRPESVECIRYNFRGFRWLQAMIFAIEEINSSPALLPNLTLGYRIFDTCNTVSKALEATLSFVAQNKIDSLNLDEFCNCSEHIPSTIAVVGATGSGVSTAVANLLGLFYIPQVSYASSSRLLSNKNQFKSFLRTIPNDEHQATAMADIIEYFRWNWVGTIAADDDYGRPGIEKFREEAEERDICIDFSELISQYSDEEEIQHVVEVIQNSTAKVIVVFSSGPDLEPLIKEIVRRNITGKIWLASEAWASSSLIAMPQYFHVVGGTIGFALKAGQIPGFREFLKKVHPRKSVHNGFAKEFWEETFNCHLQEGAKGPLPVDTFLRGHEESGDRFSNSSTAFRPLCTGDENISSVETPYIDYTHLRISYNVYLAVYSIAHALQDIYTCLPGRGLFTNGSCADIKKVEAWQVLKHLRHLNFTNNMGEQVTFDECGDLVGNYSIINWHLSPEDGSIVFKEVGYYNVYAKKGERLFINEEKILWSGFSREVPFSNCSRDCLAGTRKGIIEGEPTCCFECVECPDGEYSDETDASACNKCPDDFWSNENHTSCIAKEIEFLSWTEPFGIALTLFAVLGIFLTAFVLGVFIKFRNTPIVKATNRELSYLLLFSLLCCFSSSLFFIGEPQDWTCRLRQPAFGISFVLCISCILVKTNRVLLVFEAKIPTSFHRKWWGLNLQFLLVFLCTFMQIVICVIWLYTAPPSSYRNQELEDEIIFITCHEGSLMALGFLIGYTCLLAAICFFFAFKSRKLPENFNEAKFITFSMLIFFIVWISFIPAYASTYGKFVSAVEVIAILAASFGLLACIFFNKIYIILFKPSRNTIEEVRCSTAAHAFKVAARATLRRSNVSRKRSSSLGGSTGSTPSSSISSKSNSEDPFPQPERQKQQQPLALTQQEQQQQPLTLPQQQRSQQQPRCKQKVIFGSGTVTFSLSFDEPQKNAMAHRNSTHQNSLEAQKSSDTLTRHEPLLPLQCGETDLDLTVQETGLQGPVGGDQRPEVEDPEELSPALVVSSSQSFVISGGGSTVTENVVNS
Protocol: 3.1.1 Objective: The test example is intended to measure the agonist activity of compounds 1-38 on the human calcium-sensing receptor (CaSR).
Stably transfected HEK293/CaSR cells (source: Pharmaron) were cultured in a complete medium (composition: DMEM, high glucose+10% FBS+2 mM GlutaMAX+1× Penicillin-Streptomycin+200 μg/mL Hygromycin B) and incubated at 37° C./5% CO2 till 70%-90% cell confluence. The cells were digested with TrypLE, inoculated into 384-well cell culture plates, and cultured overnight at 37° C./5% CO2. After buffer exchange, stimulation buffer (HEPES 10 mM, MgCl2 0.5 mM, KCl 4.2 mM, NaCl 146 mM, glucose 5.5 mM, LiCl 50 mM, CaCl2 1.2 mM) and various concentrations of the test example compounds were added and incubated at 37° C. for 60 min. Production of IP-One in cells was detected according to the procedures in the Cisbio IP-One Tb kit instructions. The EC50 values of various test example compounds in influencing human calcium-sensing receptor was calculated by software after the raw data of the example compounds were collected, so as to evaluate the agonist activity of the example compounds on human calcium-sensing receptor.
HTRF signal was read by an EnVision detector with an excitation wavelength of 320 nm and emission wavelengths of 620 nm and 665 nm. The signal ratio (665 nm/620 nm×10,000) was calculated and fitted non-linearly to the sample concentration in GraphPad Prism 6 using a four-parameter equation to give EC50 values of the test example compounds 1-38.

[2] = test system: rat peritoneal mast cells; assay: In vitro histamine release in rat peritoneal mast cells (histamine ELISA); format: cell-based; settings: test compound final concentration 10 μM, 15 min at 37° C., relative to PBS buffer (1.00)
Protocol: To evaluate the in vitro histamine release levels induced by some of the test example compounds, rat peritoneal mast cells were collected by lavaging rat peritoneum with a lavage buffer (cold HBSS+25 mM HEPES containing heparin 5 U/mL, pH 7.4). After collection, the cells were centrifuged, and the lavage buffer was discarded. The cells were resuspended and washed twice with a stimulation buffer (HBSS+25 mM HEPES+1 mM CaCl2), pH 7.4). The cells were plated at a density of 10^5 cell/well (200 μL/well) and incubated at 37° C. for 15 min with positive control compound 48/80 (final concentration: 4 μg/mL), test example compounds (final concentration: 10 μM) or vehicle control. The cells were centrifuged, and cell supernatant was collected and tested for histamine concentration according to LDN Histamine ELISA kit (BAE-1000) instructions.

[3] = HEK293/CaSR cells, IP-One production, 60 min at 37° C., CaCl2 1.2 mM, read-out: EC50 for calcium-sensing receptor

Row | Structure (SMILES) | EC50 [1, 3] [µM] | Relative fold of histamine release in vitro [2] | EC50 [1] [µM]
1 | CC(=O)N[C@H](CSSC[C@H](N)C(=O)O)C(=O)N[C@H](Cc1ccc(C)cc1)C(=O)N[C@H](CCCNC(=N)N)C(=O)N[C@H](CCCNC(=N)N)C(=O)N[C@H](CCCNC(=N)N)C(=O)N[C@H](C)C(=O)N[C@H](CCCNC(=N)N)C(N)=O [Compound 3, Ac-c(C)-[D-Phe(4-CH3)]-r-r-r-a-r-NH2] (Ac-[dC](Cys(free,S-linked))[dPhe(4-Me)][dR][dR][dR][dA][dR]-NH2) | 15.3 |  | 
2 | CC(=O)N[C@H](CSSC[C@H](N)C(=O)O)C(=O)N[C@H](CCCNC(=N)N)C(=O)N[C@H](CCCNC(=N)N)C(=O)N[C@H](CCC(N)=O)C(=O)N[C@H](CCCNC(=N)N)C(=O)N[C@H](CO)C(=O)N[C@H](CCCNC(=N)N)C(N)=O [Compound 26, Ac-c(C)-r-r-q-r-s-r-NH2] (Ac-[dC](Cys(free,S-linked))[dR][dR][dQ][dR][dS][dR]-NH2) | 9.24 | 1.73 | 
3 | CC(=O)N[C@H](CSSC[C@H](N)C(=O)O)C(=O)N[C@H](CCCNC(=N)N)C(=O)N[C@H](CCCNC(=N)N)C(=O)N[C@H](CO)C(=O)N[C@H](CCCNC(=N)N)C(=O)N[C@H](CO)C(=O)N[C@H](CCCNC(=N)N)C(N)=O [Compound 25, Ac-c(C)-r-r-s-r-s-r-NH2] (Ac-[dC](Cys(free,S-linked))[dR][dR][dS][dR][dS][dR]-NH2) | 10.1 | 1.65 | 
4 | CC(=O)N[C@H](CSSC[C@H](N)C(=O)O)C(=O)N[C@H](CCCNC(=N)N)C(=O)N[C@H](CCCNC(=N)N)C(=O)N[C@@H](C(=O)N[C@H](CCCNC(=N)N)C(=O)N[C@H](C)C(=O)N[C@H](CCCNC(=N)N)C(N)=O)c1ccccc1 [Compound 11, Ac-c(C)-r-r-(D-Phg)-r-a-r-NH2] (Ac-[dC](Cys(free,S-linked))[dR][dR][dPhg][dR][dA][dR]-NH2) | 15.7 | 1.11 | 
5 | CC(=O)N[C@H](CSSC[C@H](N)C(=O)O)C(=O)N[C@H](CCCNC(=N)N)C(=O)N[C@H](CCCNC(=N)N)C(=O)N[C@@H](C(=O)N[C@H](CCCNC(=N)N)C(=O)NCC(=O)N[C@H](CCCNC(=N)N)C(N)=O)C(C)(C)C [Compound 38, Ac-c(C)-r-r-(D-Tle)-r-G-r-NH2] (Ac-[dC](Cys(free,S-linked))[dR][dR][dTle][dR]G[dR]-NH2) | 18.7 |  | 
6 | CC(=O)N[C@H](CSSC[C@H](N)C(=O)O)C(=O)N[C@H](CCCNC(=N)N)C(=O)N[C@H](CCCNC(=N)N)C(=O)N[C@H](CC1CCCCC1)C(=O)N[C@H](CCCNC(=N)N)C(=O)N[C@H](C)C(=O)N[C@H](CCCNC(=N)N)C(N)=O [Compound 21, Ac-c(C)-r-r-(D-Cha)-r-a-r-NH2] (Ac-[dC](Cys(free,S-linked))[dR][dR][dCha][dR][dA][dR]-NH2) | 5.59 | 3.42 | 
7 | CC(=O)N[C@H](CSSC[C@H](N)C(=O)O)C(=O)N[C@H](Cc1c[nH]c2ccccc12)C(=O)N[C@H](CCCNC(=N)N)C(=O)N[C@H](CCCNC(=N)N)C(=O)N[C@H](CCCNC(=N)N)C(=O)NCC(=O)N[C@H](CCCNC(=N)N)C(N)=O [Compound 9, Ac-c(C)-w-r-r-r-G-r-NH2] (Ac-[dC](Cys(free,S-linked))[dW][dR][dR][dR]G[dR]-NH2) | 3.16 |  | 
8 | CC(=O)N[C@H](CSSC[C@H](N)C(=O)O)C(=O)N[C@H](CCCNC(=N)N)C(=O)N[C@H](CCCNC(=N)N)C(=O)N[C@H](Cc1c[nH]cn1)C(=O)N[C@H](CCCNC(=N)N)C(=O)N[C@H](CO)C(=O)N[C@H](CCCNC(=N)N)C(N)=O [Compound 27, Ac-c(C)-r-r-h-r-s-r-NH2] (Ac-[dC](Cys(free,S-linked))[dR][dR][dH][dR][dS][dR]-NH2) | 10.8 | 2.23 | 
9 | CC(=O)N[C@H](CSSC[C@H](N)C(=O)O)C(=O)N[C@H](Cc1ccccc1Cl)C(=O)N[C@H](CCCNC(=N)N)C(=O)N[C@H](CCCNC(=N)N)C(=O)N[C@H](CCCNC(=N)N)C(=O)N[C@H](C)C(=O)N[C@H](CCCNC(=N)N)C(N)=O [Compound 2, Ac-c(C)-[D-Phe(2-Cl)]-r-r-r-a-r-NH2] (Ac-[dC](Cys(free,S-linked))[dPhe(2-Cl)][dR][dR][dR][dA][dR]-NH2) | 6.76 | 4.96 | 
10 | CC(=O)N[C@H](CSSC[C@H](N)C(=O)O)C(=O)N[C@H](CCCNC(=N)N)C(=O)N[C@H](CCCNC(=N)N)C(=O)N[C@H](CCC(N)=O)C(=O)N[C@H](CCCNC(=N)N)C(=O)NCC(=O)N[C@H](CCCNC(=N)N)C(N)=O [Compound 23, Ac-c(C)-r-r-q-r-G-r-NH2] (Ac-[dC](Cys(free,S-linked))[dR][dR][dQ][dR]G[dR]-NH2) | 30.4 |  | 
11 | CC(=O)N[C@H](CSSC[C@H](N)C(=O)O)C(=O)N[C@H](CCCNC(=N)N)C(=O)N[C@H](CCCNC(=N)N)C(=O)N[C@H](C)C(=O)N[C@H](CCCNC(=N)N)C(=O)N[C@H](C)C(=O)N[C@H](CCCNC(=N)N)C(N)=O [Etelcalcetide analogue, Ac-c(C)-r-r-a-r-a-r-NH2, reference compound] (Ac-[dC](Cys(free,S-linked))[dR][dR][dA][dR][dA][dR]-NH2) |  |  | 6.74
12 | CC(=O)N[C@H](CSSC[C@H](N)C(=O)O)C(=O)N[C@H](CCCNC(=N)N)C(=O)N[C@H](CCCNC(=N)N)C(=O)N[C@H](Cc1ccc([N+](=O)[O-])cc1)C(=O)N[C@H](CCCNC(=N)N)C(=O)N[C@H](C)C(=O)N[C@H](CCCNC(=N)N)C(N)=O [Compound 14, Ac-c(C)-r-r-[D-Phe(4-NO2)]-r-a-r-NH2] (Ac-[dC](Cys(free,S-linked))[dR][dR][dPhe(4-NO2)][dR][dA][dR]-NH2) | 4.33 |  | 
13 | CC(=O)N[C@H](CSSC[C@H](N)C(=O)O)C(=O)N[C@H](CCCNC(=N)N)C(=O)N[C@H](CCCNC(=N)N)C(=O)N[C@@H](C(=O)N[C@H](CCCNC(=N)N)C(=O)NCC(=O)N[C@H](CCCNC(=N)N)C(N)=O)C1CCCCC1 [Compound 36, Ac-c(C)-r-r-(D-Chg)-r-G-r-NH2] (Ac-[dC](Cys(free,S-linked))[dR][dR][dChg][dR]G[dR]-NH2) | 17.9 |  | 
14 | CC(=O)N[C@H](CSSC[C@H](N)C(=O)O)C(=O)N[C@H](CCCNC(=N)N)C(=O)N[C@H](CCCNC(=N)N)C(=O)N[C@H](Cc1ccc2ccccc2c1)C(=O)N[C@H](CCCNC(=N)N)C(=O)N[C@H](C)C(=O)N[C@H](CCCNC(=N)N)C(N)=O [Compound 15, Ac-c(C)-r-r-(D-2-NaI)-r-a-r-NH2] (Ac-[dC](Cys(free,S-linked))[dR][dR][d2Nal][dR][dA][dR]-NH2) | 5.59 |  | 
15 | CC(=O)N[C@H](CSSC[C@H](N)C(=O)O)C(=O)N[C@H](CCCNC(=N)N)C(=O)N[C@H](CCCNC(=N)N)C(=O)N[C@H](Cc1c[nH]cn1)C(=O)N[C@H](CCCNC(=N)N)C(=O)NCC(=O)N[C@H](CCCNC(=N)N)C(N)=O [Compound 28, Ac-c(C)-r-r-h-r-G-r-NH2] (Ac-[dC](Cys(free,S-linked))[dR][dR][dH][dR]G[dR]-NH2) | 21.5 |  | 
